Source: ChEMBL document CHEMBL1201862, “PubChem BioAssay data set” (2004)
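Grown in 96-well plates, cells were treated for 48 hours with each compound at five concentrations. Insufficient inhibition: endpoint recorded as highest concentration tested. Here, GI50 denotes the concentration required for 50% inhibition of growth.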 Calls of active or inactive are those of the source. No stated cut-off is given here; in the data, active = GI50 up to about 1.1 µM and inactive = higher.

Legend:
Test in all cases: growth of human tumour cells (NCI), 48 h
DLD-1 = tested on: DLD-1
DMS-273 = tested on: DMS-273
HCT-116 = tested on: HCT-116
HL-60 = tested on: HL-60
HOP-18 = tested on: HOP-18
K562 = tested on: K562
KM-20L2 = tested on: KM-20L2
LXFL 529 = tested on: LXFL 529
MCF7 = tested on: MCF7
MDA-MB-435 = tested on: MDA-MB-435
MOLT-4 = tested on: MOLT-4
NCI-H522 = tested on: NCI-H522
RXF 631 = tested on: RXF 631
786-0 = tested on: 786-0
A498 = tested on: A498
A549 = tested on: A549
ACHN = tested on: ACHN
CAKI-1 = tested on: CAKI-1
CCRF-CEM = tested on: CCRF-CEM
COLO 205 = tested on: COLO 205
DMS-114 = tested on: DMS-114
HCT-15 = tested on: HCT-15
HOP-62 = tested on: HOP-62
HOP-92 = tested on: HOP-92
HT-29 = tested on: HT-29
IGROV-1 = tested on: IGROV-1
KM12 = tested on: KM12
LOX IMVI = tested on: LOX IMVI
M14 = tested on: M14
M19-MEL = tested on: M19-MEL
Malme-3M = tested on: Malme-3M
NCI-H226 = tested on: NCI-H226
NCI-H23 = tested on: NCI-H23
NCI-H460 = tested on: NCI-H460
OVCAR-3 = tested on: OVCAR-3
OVCAR-4 = tested on: OVCAR-4
OVCAR-5 = tested on: OVCAR-5
OVCAR-8 = tested on: OVCAR-8
RPMI-8226 = tested on: RPMI-8226
SF-268 = tested on: SF-268
SF-295 = tested on: SF-295
SF-539 = tested on: SF-539
SK-MEL-28 = tested on: SK-MEL-28
SK-MEL-2 = tested on: SK-MEL-2
SK-MEL-5 = tested on: SK-MEL-5
SK-OV-3 = tested on: SK-OV-3
SN12C = tested on: SN12C
SNB-19 = tested on: SNB-19
SNB-75 = tested on: SNB-75
SNB-78 = tested on: SNB-78
SR = tested on: SR
SW-620 = tested on: SW-620
TK-10 = tested on: TK-10
U-251 = tested on: U-251
UACC-257 = tested on: UACC-257
UACC-62 = tested on: UACC-62
UO-31 = tested on: UO-31

For `CC[C@H]1CN2CCc3cc(OC)c(OC)cc3[C@@H]2C[C@@H]1C[C@H]1NCCc2cc(OC)c(OC)cc21`, the GI50 (DLD-1) was 0.0358 µM (active), the GI50 (DMS-273) was 0.043 µM (active) and the GI50 (HCT-116) was 0.0149 µM (active). For the same compound, the GI50 (HL-60) was 0.0148 µM (active), the GI50 (HOP-18) was 0.0578 µM (active) and the GI50 (K562) was 0.0104 µM (active). For the same compound, the GI50 (KM-20L2) was 0.0652 µM (active), the GI50 (LXFL 529) was 0.0276 µM (active) and the GI50 (MCF7) was 0.00347 µM (active). The GI50 (MDA-MB-435) was 0.0188 µM (active), the GI50 (MOLT-4) was 0.0161 µM (active) and the GI50 (NCI-H522) was 0.0109 µM (active). The GI50 (RXF 631) was 0.0311 µM (active).

In the case of `COc1nc(NC2OCC(OC(C)=O)C(OC(C)=O)C2OC(C)=O)c(-c2csc(N)n2)c(=O)n1C` (configuration not stated), the GI50 (786-0) is reported as > 100 µM (inactive), the GI50 (A498) is reported as > 100 µM (inactive) and the GI50 (A549) is reported as > 100 µM (inactive). The GI50 (ACHN) was > 100 µM (inactive), the GI50 (CAKI-1) was > 100 µM (inactive) and the GI50 (CCRF-CEM) was > 100 µM (inactive). The GI50 (COLO 205) was > 100 µM (inactive), the GI50 (DLD-1) was > 100 µM (inactive) and the GI50 (DMS-114) was > 100 µM (inactive). The GI50 (HCT-116) was > 100 µM (inactive), the GI50 (HCT-15) was > 100 µM and the GI50 (HL-60) was > 100 µM (inactive). The GI50 (HOP-18) was > 100 µM (inactive), the GI50 (HOP-62) was > 100 µM (inactive) and the GI50 (HOP-92) was > 100 µM (inactive). For the same compound, the GI50 (HT-29) was > 100 µM (inactive), the GI50 (IGROV-1) was > 100 µM (inactive) and the GI50 (K562) was > 100 µM (inactive). The GI50 (KM-20L2) was > 100 µM (inactive), the GI50 (KM12) was > 100 µM (inactive) and the GI50 (LOX IMVI) was > 100 µM (inactive). The GI50 (LXFL 529) was > 100 µM (inactive), the GI50 (M14) was > 100 µM (inactive) and the GI50 (M19-MEL) was > 100 µM (inactive). For the same compound, the GI50 (MOLT-4) was > 100 µM (inactive), the GI50 (Malme-3M) was > 100 µM (inactive) and the GI50 (NCI-H226) was > 100 µM (inactive). For the same compound, the GI50 (NCI-H23) was > 100 µM (inactive), the GI50 (NCI-H460) was > 100 µM (inactive) and the GI50 (NCI-H522) was > 100 µM (inactive). The GI50 (OVCAR-3) was > 100 µM (inactive), the GI50 (OVCAR-4) was > 100 µM (inactive) and the GI50 (OVCAR-5) was > 100 µM (inactive). For the same compound, the GI50 (OVCAR-8) was > 100 µM (inactive), the GI50 (RPMI-8226) was > 100 µM (inactive) and the GI50 (RXF 631) was > 100 µM (inactive). For the same compound, the GI50 (SF-268) was > 100 µM (inactive), the GI50 (SF-295) was > 100 µM (inactive) and the GI50 (SF-539) was > 100 µM (inactive). The GI50 (SK-MEL-28) was > 100 µM (inactive), the GI50 (SK-MEL-2) was > 100 µM (inactive) and the GI50 (SK-MEL-5) was > 100 µM (inactive). The GI50 (SK-OV-3) was > 100 µM (inactive), the GI50 (SN12C) was > 100 µM (inactive) and the GI50 (SNB-19) was > 100 µM (inactive). The GI50 (SNB-75) was > 100 µM (inactive), the GI50 (SNB-78) was > 100 µM (inactive) and the GI50 (SR) was > 100 µM (inactive). For the same compound, the GI50 (SW-620) was > 100 µM (inactive), the GI50 (TK-10) was > 100 µM (inactive) and the GI50 (U-251) was > 100 µM (inactive). The GI50 (UACC-257) was > 100 µM (inactive), the GI50 (UACC-62) was > 100 µM (inactive) and the GI50 (UO-31) was > 100 µM (inactive).
